From US20150231240A1, “ANTI-C16ORF54 ANTIBODIES AND METHODS OF USE THEREOF” (priority 2012, published 2015)
Square brackets hold non-standard residues; d marks the D form. Peptide text beside a SMILES is read from it. * marks the point of attachment. Dolaproine = CO[C@@H]([C@@H]1CCCN1)[C@@H](C)C(=O)O; Dil = CC[C@H](C)[C@H](NC)[C@@H](CC(=O)O)OC; X1 = C[C@@H](N*)[C@@H](O)c1ccccc1; NMeV = CN[C@H](C(=O)O)C(C)C

Assays:
[1] = test system: C16orf54 expressing Sarcoma line 1; test: Cell viability assay, C16orf54 expressing sarcoma line 1; type: cell-based, murine; conditions: 1000 cells/well, 72 hours
Method: (§1) Murine sarcoma cell lines that express C16orf54 were prepared by virus infection of sarcoma cell lines. A PCR-amplified C16orf54 gene was cloned into a murine stem cell virus expression vector with a neomycin resistance gene and sequenced to confirm the identity. To prepare virus particles, HEK 293t cells with retroviral packaging proteins were transfected, in the presence of transfection reagent FUGENE HD (Roche), with the retroviral expression vector containing C16orf54. The virus particles collected from the supernatant of the culture media 48 hours after transfection were used to infect the sarcoma cells. After G418 selection, stable transfectants were pooled and then cloned by limiting dilution. Clones were then picked and expanded in the presence of antibiotics. Clones with the highest expression level of C16orf54 as measured by flow cytometry were expanded and banked. These cell lines were then used to immunize the syngeneic mice for antibody production and in the binding assays for antibody selection as follows.
(§2) The anti-tumor activity of unconjugated anti-C16orf54 antibodies and anti-C16orf54 antibodies that were directly conjugated with […] (ADCs) was determined in a cell viability assay using several C16orf54-expressing cell lines. Cells were plated at 1000 cells/well and incubated in the presence of antibodies or ADCs for 72 hours.

[2] = test system: C16orf54 expressing sarcoma line 2; test: Cell viability assay, C16orf54 expressing sarcoma line 2; type: cell-based, murine; conditions: 1000 cells/well, 72 hours
Method: as §1, §2

Q: Which results are given for `CC[C@H](C)[C@@H]([C@@H](CC(=O)N1CCC[C@H]1[C@H](OC)[C@@H](C)C(=O)N[C@H](C)[C@@H](O)c1ccccc1)OC)N(C)C(=O)[C@@H](NC(=O)[C@@H](NC)C(C)C)C(C)C` [MMAE, monomethylauristatin E] (H-[NMeV]V[Dil][Dolaproine]-X1)?
A: IC50 [1]: 0.4 nM; IC50 [2]: 4.1 nM
